This is an account of results in patent publication US20250353891A1 (MEDIMMUNE LIMITED, priority 2022, published 2025).

The target in assay [1] is human glucagon receptor (hGCGR) (Homo sapiens, UniProt P47871). The assay can be described thus: cAMP production (HTRF) in CHO cells expressing hGCGR. Type of assay: cell-based. Also on record: expressed in transfected cells. Particulars: Table 6, peptides modified at position 17, cAMP in CHO hGCGR cells, geometric mean. In outline:
(§1)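 Read-out: HTRF cAMP (anti-cAMP cryptate donor, cAMP-d2 acceptor in conjugate/lysis buffer), converted to % Delta F and fitted by 4-parameter logistic for EC50. Cell densities were 1×10^5 cells/mL (hGLP-1R) or 2×10^5 cells/mL (hGCGR). Stimulation lasted 30 min at room temperature.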
A general note: Changes in cAMP serve as a functional read-out for many G protein-coupled receptors.

Assay [2] addresses human GLP-1 receptor (hGLP-1R) (Homo sapiens, UniProt P43220). In words: cAMP production (HTRF) in CHO cells expressing hGLP-1R. More on the design: expressed in transfected cells. The settings on record: for EC50: Table 6, peptides modified at position 17, cAMP in CHO hGLP-1R cells, geometric mean; for % Relative Potency Ratio: Table 6, % GLP-1R activity relative to GLP-1 / % GlucR activity relative to glucagon. Type of assay: cell-based. An outline of the steps:
as §1

Molecules are shown by their SMILES. Like-named read-outs stand apart in the source and are kept apart here. Starred links: 1 amine or outer side, 2 acyl side, 3 side chain; linkers in the order of their positions; H or OH if unused. Non-standard residues stand in square brackets, D forms with d. Residues, ends and D or L forms follow the SMILES beside them. Groups on a side chain read outwards from the residue. *: point of attachment. C20 diacid = O=C(O)CCCCCCCCCCCCCCCCCCC(=O)*; C18 diacid = O=C(O)CCCCCCCCCCCCCCCCC(=O)*; γGlu = O=C(O)[C@H](CCC(=O)[*:2])N[*:1]; αMeF = C[C@](N)(Cc1ccccc1)C(=O)O; AEEA = NCCOCCOCC(=O)O; Aib = CC(C)(N)C(=O)O

human glucagon receptor (hGCGR), sequence (P47871 26-477): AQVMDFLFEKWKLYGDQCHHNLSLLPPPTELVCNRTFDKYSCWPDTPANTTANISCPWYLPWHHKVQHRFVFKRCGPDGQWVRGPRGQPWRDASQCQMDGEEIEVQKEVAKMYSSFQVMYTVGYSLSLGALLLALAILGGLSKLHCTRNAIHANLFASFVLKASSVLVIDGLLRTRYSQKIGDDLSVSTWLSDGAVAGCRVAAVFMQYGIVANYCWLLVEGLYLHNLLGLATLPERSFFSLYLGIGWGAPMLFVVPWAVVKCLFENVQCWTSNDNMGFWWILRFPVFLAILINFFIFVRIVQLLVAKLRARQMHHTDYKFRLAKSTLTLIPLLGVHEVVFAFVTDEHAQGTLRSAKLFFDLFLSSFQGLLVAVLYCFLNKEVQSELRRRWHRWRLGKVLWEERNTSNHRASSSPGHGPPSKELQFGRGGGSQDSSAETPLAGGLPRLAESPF
human GLP-1 receptor (hGLP-1R), sequence (P43220 24-463): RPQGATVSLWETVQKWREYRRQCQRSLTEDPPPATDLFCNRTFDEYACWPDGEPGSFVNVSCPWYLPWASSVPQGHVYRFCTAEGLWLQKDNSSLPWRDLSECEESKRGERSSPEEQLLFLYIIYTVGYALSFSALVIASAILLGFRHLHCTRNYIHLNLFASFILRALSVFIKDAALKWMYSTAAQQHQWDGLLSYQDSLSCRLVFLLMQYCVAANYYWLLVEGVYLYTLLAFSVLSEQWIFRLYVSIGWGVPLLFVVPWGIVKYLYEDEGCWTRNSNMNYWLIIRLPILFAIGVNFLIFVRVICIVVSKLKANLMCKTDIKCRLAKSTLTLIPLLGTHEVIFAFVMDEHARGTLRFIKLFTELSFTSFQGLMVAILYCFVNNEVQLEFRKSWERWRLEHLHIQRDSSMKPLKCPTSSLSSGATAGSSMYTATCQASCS

Turning to `CC(C)C[C@H](NC(=O)[C@H](Cc1c[nH]c2ccccc12)NC(=O)[C@H](CCCNC(=N)N)NC(=O)[C@@H](NC(=O)[C@H](Cc1ccccc1)NC(=O)[C@H](CC(=O)O)NC(=O)[C@H](CCCNC(=N)N)NC(=O)[C@H](C)NC(=O)[C@H](CCCNC(=N)N)NC(=O)[C@H](CCCCNC(=O)COCCOCCNC(=O)COCCOCCNC(=O)CC[C@H](NC(=O)CCCCCCCCCCCCCCCCC(=O)O)C(=O)O)NC(=O)[C@H](CCCCN)NC(=O)[C@H](CC(=O)O)NC(=O)[C@H](CC(C)C)NC(=O)[C@](C)(Cc1ccccc1)NC(=O)[C@H](CCCCN)NC(=O)[C@H](CO)NC(=O)[C@@H](NC(=O)[C@H](CC(=O)O)NC(=O)[C@H](CO)NC(=O)[C@@H](NC(=O)[C@H](Cc1ccccc1)NC(=O)[C@@H](NC(=O)CNC(=O)[C@H](CCC(N)=O)NC(=O)C(C)(C)NC(=O)[C@@H](N)Cc1c[nH]cn1)[C@@H](C)O)[C@@H](C)O)C(C)C)C(C)C)C(=O)N[C@@H](CC(C)C)C(=O)NC(C)(C)C(=O)N[C@@H](CCC(=O)O)C(N)=O` [Peptide 443] (H-H[Aib]QGTFTSDVSK[αMeF]LDKK([AEEA-AEEA-γGlu-C18 diacid])RARDFVRWLL[Aib]E-NH2; N-terminus assumed), the results for the EC50 in assay [1] (read-out: hGluc-R EC50) and in assay [2] (read-out: hGLP-1R EC50) were 22.4 pM and 20.6 pM, respectively. Also, the “% Relative Potency Ratio” value in assay [2] amounted to 2.2.

Turning to `CC(C)C[C@H](NC(=O)[C@H](Cc1c[nH]c2ccccc12)NC(=O)[C@H](CCC(N)=O)NC(=O)[C@@H](NC(=O)[C@H](Cc1ccccc1)NC(=O)[C@H](CC(=O)O)NC(=O)[C@H](CCCNC(=N)N)NC(=O)[C@H](C)NC(=O)[C@H](CCCNC(=N)N)NC(=O)[C@H](CCCCNC(=O)COCCOCCNC(=O)COCCOCCNC(=O)CC[C@H](NC(=O)CCCCCCCCCCCCCCCCC(=O)O)C(=O)O)NC(=O)[C@@H](NC(=O)[C@H](CCC(=O)O)NC(=O)[C@H](CC(C)C)NC(=O)[C@](C)(Cc1ccccc1)NC(=O)[C@H](CCCCN)NC(=O)[C@H](CO)NC(=O)[C@@H](NC(=O)[C@H](CC(=O)O)NC(=O)[C@H](CO)NC(=O)[C@@H](NC(=O)[C@H](Cc1ccccc1)NC(=O)[C@@H](NC(=O)CNC(=O)[C@H](CCC(N)=O)NC(=O)C(C)(C)NC(=O)[C@@H](N)Cc1c[nH]cn1)[C@@H](C)O)[C@@H](C)O)C(C)C)[C@@H](C)O)C(C)C)C(=O)N[C@@H](CC(C)C)C(=O)N[C@@H](CCC(=O)O)C(=O)NC(C)(C)C(=O)NCC(=O)O` [Peptide 445] (H-H[Aib]QGTFTSDVSK[αMeF]LETK([AEEA-AEEA-γGlu-C18 diacid])RARDFVQWLLE[Aib]G-OH), the EC50 (as a rule, the concentration giving half of the maximal effect) in assay [1] (hGluc-R EC50 (pM)) worked out at 684 pM; in assay [2] (hGLP-1R EC50 (pM)), 33 pM.

Turning to `CC(C)C[C@H](NC(=O)[C@H](Cc1c[nH]c2ccccc12)NC(=O)[C@H](CCCNC(=N)N)NC(=O)[C@@H](NC(=O)[C@H](Cc1ccccc1)NC(=O)[C@H](CC(=O)O)NC(=O)[C@H](CCC(N)=O)NC(=O)[C@H](C)NC(=O)[C@H](CCCNC(=N)N)NC(=O)[C@H](CCCCNC(=O)COCCOCCNC(=O)COCCOCCNC(=O)CC[C@H](NC(=O)CC[C@H](NC(=O)CCCCCCCCCCCCCCCCC(=O)O)C(=O)O)C(=O)O)NC(=O)[C@H](CCCNC(=N)N)NC(=O)[C@H](CC(=O)O)NC(=O)[C@H](CC(C)C)NC(=O)[C@](C)(Cc1ccccc1)NC(=O)[C@H](CCCCN)NC(=O)[C@H](CO)NC(=O)[C@@H](NC(=O)[C@H](CC(=O)O)NC(=O)[C@H](CO)NC(=O)[C@@H](NC(=O)[C@H](Cc1ccccc1)NC(=O)[C@@H](NC(=O)CNC(=O)[C@H](CCC(N)=O)NC(=O)C(C)(C)NC(=O)[C@@H](N)Cc1c[nH]cn1)[C@@H](C)O)[C@@H](C)O)C(C)C)C(C)C)C(=O)N[C@H](C(=O)NC(C)(C)C(=O)N[C@@H](CCC(=O)O)C(N)=O)C(C)C` [Peptide 446] (H-H[Aib]QGTFTSDVSK[αMeF]LDRK([AEEA-AEEA-γGlu-γGlu-C18 diacid])RAQDFVRWLV[Aib]E-NH2; N-terminus assumed), the EC50 in assay [1] (read-out: hGluc-R EC50) turned out to be 366 pM; in assay [2] (read-out: hGLP-1R EC50), 32.9 pM. For the same molecule, in assay [2], the “% Relative Potency Ratio” value was 22.0.

Turning to `CC(C)C[C@H](NC(=O)[C@H](Cc1c[nH]c2ccccc12)NC(=O)[C@H](CCCNC(=N)N)NC(=O)[C@@H](NC(=O)[C@H](Cc1ccccc1)NC(=O)[C@H](CC(=O)O)NC(=O)[C@H](CCC(N)=O)NC(=O)[C@H](C)NC(=O)[C@H](CCCNC(=N)N)NC(=O)[C@H](CCCCNC(=O)COCCOCCNC(=O)COCCOCCNC(=O)CC[C@H](NC(=O)CC[C@H](NC(=O)CCCCCCCCCCCCCCCCCCC(=O)O)C(=O)O)C(=O)O)NC(=O)[C@H](CCCNC(=N)N)NC(=O)[C@H](CC(=O)O)NC(=O)[C@H](CC(C)C)NC(=O)[C@](C)(Cc1ccccc1)NC(=O)[C@H](CCCCN)NC(=O)[C@H](CO)NC(=O)[C@@H](NC(=O)[C@H](CC(=O)O)NC(=O)[C@H](CO)NC(=O)[C@@H](NC(=O)[C@H](Cc1ccccc1)NC(=O)[C@@H](NC(=O)CNC(=O)[C@H](CCC(N)=O)NC(=O)C(C)(C)NC(=O)[C@@H](N)Cc1c[nH]cn1)[C@@H](C)O)[C@@H](C)O)C(C)C)C(C)C)C(=O)N[C@H](C(=O)NC(C)(C)C(=O)N[C@@H](CCC(=O)O)C(N)=O)C(C)C` [Peptide 447] (H-H[Aib]QGTFTSDVSK[αMeF]LDRK([AEEA-AEEA-γGlu-γGlu-C20 diacid])RAQDFVRWLV[Aib]E-NH2; N-terminus assumed), the EC50 in assay [1] (read-out: hGluc-R EC50) came to 667 pM; in assay [2] (read-out: hGLP-1R EC50), 170 pM. In addition, the “% Relative Potency Ratio” value in assay [2] was 7.8.

On to `CC(C)C[C@H](NC(=O)[C@H](Cc1c[nH]c2ccccc12)NC(=O)[C@H](CCCNC(=N)N)NC(=O)[C@@H](NC(=O)[C@H](Cc1ccccc1)NC(=O)[C@H](CC(=O)O)NC(=O)[C@H](CCCNC(=N)N)NC(=O)[C@H](C)NC(=O)[C@H](CCCNC(=N)N)NC(=O)[C@H](CCCCNC(=O)COCCOCCNC(=O)COCCOCCNC(=O)CC[C@H](NC(=O)CC[C@H](NC(=O)CCCCCCCCCCCCCCCCC(=O)O)C(=O)O)C(=O)O)NC(=O)[C@H](CCCCN)NC(=O)[C@H](CC(=O)O)NC(=O)[C@H](CC(C)C)NC(=O)[C@](C)(Cc1ccccc1)NC(=O)[C@H](CCCCN)NC(=O)[C@H](CO)NC(=O)[C@@H](NC(=O)[C@H](CC(=O)O)NC(=O)[C@H](CO)NC(=O)[C@@H](NC(=O)[C@H](Cc1ccccc1)NC(=O)[C@@H](NC(=O)CNC(=O)[C@H](CCC(N)=O)NC(=O)C(C)(C)NC(=O)[C@@H](N)Cc1c[nH]cn1)[C@@H](C)O)[C@@H](C)O)C(C)C)C(C)C)C(=O)N[C@@H](CC(C)C)C(=O)NC(C)(C)C(=O)N[C@@H](CCC(=O)O)C(=O)O` [Peptide 448] (H-H[Aib]QGTFTSDVSK[αMeF]LDKK([AEEA-AEEA-γGlu-γGlu-C18 diacid])RARDFVRWLL[Aib]E-OH), for which the EC50 in assay [1] (read-out: hGluc-R EC50) was 29 pM; in assay [2] (read-out: hGLP-1R EC50), 53.1 pM. Further, the “% Relative Potency Ratio” value in assay [2] worked out at 1.1.

`CC(C)C[C@H](NC(=O)[C@H](Cc1c[nH]c2ccccc12)NC(=O)[C@H](CCC(N)=O)NC(=O)[C@@H](NC(=O)[C@H](Cc1ccccc1)NC(=O)[C@H](CC(=O)O)NC(=O)[C@H](CCCNC(=N)N)NC(=O)[C@H](C)NC(=O)[C@H](CCCNC(=N)N)NC(=O)[C@H](CCCCNC(=O)COCCOCCNC(=O)COCCOCCNC(=O)CC[C@H](NC(=O)CC[C@H](NC(=O)CCCCCCCCCCCCCCCCCCC(=O)O)C(=O)O)C(=O)O)NC(=O)[C@@H](NC(=O)[C@H](CC(=O)O)NC(=O)[C@H](CC(C)C)NC(=O)[C@](C)(Cc1ccccc1)NC(=O)[C@H](CCCCN)NC(=O)[C@H](CO)NC(=O)[C@@H](NC(=O)[C@H](CC(=O)O)NC(=O)[C@H](CO)NC(=O)[C@@H](NC(=O)[C@H](Cc1ccccc1)NC(=O)[C@@H](NC(=O)CNC(=O)[C@H](CCC(N)=O)NC(=O)C(C)(C)NC(=O)[C@@H](N)Cc1c[nH]cn1)[C@@H](C)O)[C@@H](C)O)C(C)C)[C@@H](C)O)C(C)C)C(=O)N[C@@H](CC(C)C)C(=O)N[C@@H](CCC(=O)O)C(=O)NC(C)(C)C(=O)NCC(=O)O` [Peptide 449]: the half-maximal effective concentration (EC50) was determined as 242 pM in assay [1] (read-out: hGluc-R EC50) and 207 pM in assay [2] (read-out: hGLP-1R EC50). The “% Relative Potency Ratio” value in assay [2] is reported as 2.3.

Regarding `CC(C)C[C@H](NC(=O)[C@H](Cc1c[nH]c2ccccc12)NC(=O)[C@H](CCCNC(=N)N)NC(=O)[C@@H](NC(=O)[C@H](Cc1ccccc1)NC(=O)[C@H](CC(=O)O)NC(=O)[C@H](CCC(N)=O)NC(=O)[C@H](C)NC(=O)[C@H](CCCNC(=N)N)NC(=O)[C@H](CCCCNC(=O)COCCOCCNC(=O)COCCOCCNC(=O)CC[C@H](NC(=O)CC[C@H](NC(=O)CCCCCCCCCCCCCCCCC(=O)O)C(=O)O)C(=O)O)NC(=O)[C@H](CCCCN)NC(=O)[C@H](CC(=O)O)NC(=O)[C@H](CC(C)C)NC(=O)[C@](C)(Cc1ccccc1)NC(=O)[C@H](CCCCN)NC(=O)[C@H](CO)NC(=O)[C@@H](NC(=O)[C@H](CC(=O)O)NC(=O)[C@H](CO)NC(=O)[C@@H](NC(=O)[C@H](Cc1ccccc1)NC(=O)[C@@H](NC(=O)CNC(=O)[C@H](CCC(N)=O)NC(=O)C(C)(C)NC(=O)[C@@H](N)Cc1c[nH]cn1)[C@@H](C)O)[C@@H](C)O)C(C)C)C(C)C)C(=O)N[C@@H](CC(C)C)C(=O)N[C@@H](CCC(=O)O)C(=O)NC(C)(C)C(=O)NCC(=O)O` [Peptide 450] (H-H[Aib]QGTFTSDVSK[αMeF]LDKK([AEEA-AEEA-γGlu-γGlu-C18 diacid])RAQDFVRWLLE[Aib]G-OH; N-terminus assumed), the 50% effective concentration (EC50) in assay [1] (read-out: hGluc-R EC50) is 57.8 pM; in assay [2] (read-out: hGLP-1R EC50), 57.3 pM. Further, the “% Relative Potency Ratio” value in assay [2] was 2.0.
